Experimental data: patent US4593090A, “Novel nitrosourea compounds, method for preparing same, and pharmaceutical composition containing same” (Gogo Kimura, priority 1981, dated 1986)

Tests used:
Leukemia L1210 = experiment: Activity against Leukemia L1210, intraperitoneal, increase in life span of mice; type: in vivo, female mice (BDF1 family); conditions: for ED (maximum ILS) / ED30: Mus musculus, L1210, ip, ip once a day for 5 successive days; for ED (maximum ILS): daily dosage giving maximum increase of life span, read-out: O.D. (optimum dosage); for ED30: daily dosage increasing average survival days by 30%, read-out: ILS30; for Survivors after 60 days / Max. ILS % / Therapeutic ratio TR: ip; for Survivors after 60 days: 6-membered group; for Max. ILS %: 60-day observation, versus control; for Therapeutic ratio TR: O.D./ILS30
In short: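 Female BDF1 mice (20 to 23 g, 6 per group) implanted ip with 1×10^5 L1210 cells; test compound given ip or orally once daily for 5 days starting 24 h later. ILS% from mean survival days vs untreated controls over 60 days; T.R. = O.D./ILS30.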

[1] = Acute toxicity (LD50, Behrens-Karber method); type: in vivo, ICR mice; conditions: mouse, in vivo, ip, mortality during 30 days
Protocol: Test compounds, dissolved or suspended in 0.5% aqueous CMC, were each intraperitoneally administered to ICR mice in a dose of 0.1 ml per 10 g body weight. LD50 (mg/kg) value of each test compound was calculated from the mortality of mice during 30 days by the Behrens-Karber method.

Row | Structure (SMILES) | ED (maximum ILS) (Leukemia L1210) | ED30 (Leukemia L1210) | Survivors after 60 days (Leukemia L1210) | Max. ILS % (Leukemia L1210) | Therapeutic ratio TR (Leukemia L1210) | LD50 at 720 h [1]
1 | CCN(C(=O)N(CCCl)N=O)[C@H]1[C@@H](OCC(C)C)O[C@H](CO)[C@H](O)[C@@H]1O [Compound 121, 3-ethyl-3-(isobutyl α-D-galactopyranose-2-yl)-1-(2-chloroethyl)-1-nitrosourea] | 160 mg/kg | 5.99 mg/kg | 3/6 | > 350% | 26.7 | 480 mg/kg
2 | CC(C)CO[C@H]1O[C@H](CO)[C@H](O)[C@H](O)[C@H]1N(CC(C)C)C(=O)N(CCCl)N=O [Compound 122, 3-isobutyl-3-(isobutyl α-D-galactopyranose-2-yl)-1-(2-chloroethyl)-1-nitrosourea] | 200 mg/kg | 6.85 mg/kg | 3/6 | > 355% | 29.2 | 715 mg/kg
3 | CC(C)CO[C@H]1O[C@H](CO)[C@H](O)[C@H](N(CC(C)C)C(=O)N(CCCl)N=O)[C@H]1O [Compound 125, 3-isobutyl-3-(isobutyl α-D-galactopyranose-3-yl)-1-(2-chloroethyl)-1-nitrosourea] | 250 mg/kg | 7.67 mg/kg | 3/6 | > 350% | 32.6 | 780 mg/kg
4 | CC(C)CCN(C(=O)N(CCCl)N=O)[C@H]1[C@@H](O)[C@@H](CO)O[C@H](OCC(C)C)[C@@H]1O [Compound 127, 3-isoamyl-3-(isobutyl α-D-galactopyranose-3-yl)-1-(2-chloroethyl)-1-nitrosourea] | 200 mg/kg | 6.56 mg/kg | 3/6 | > 340% | 30.5 | 600 mg/kg
5 | O=NN(CCCl)C(=O)N(CC1CCCCC1)[C@H]1[C@@H](O)[C@@H](CO)O[C@H](OC2CCCCC2)[C@@H]1O [Compound 128, 3-cyclohexylmethyl-3-(cyclohexyl α-D-galactopyranose-3-yl)-1-(2-chloroethyl)-1-nitrosourea] | 200 mg/kg | 5.99 mg/kg | 3/6 | > 350% | 33.4 | 650 mg/kg
6 | CC(C)CO[C@H]1O[C@H](CO)[C@H](N(CC(C)C)C(=O)N(CCCl)N=O)[C@H](O)[C@H]1O [Compound 129, 3-isobutyl-3-(isobutyl α-D-garactopyranose-4-yl)-1-(2-chloroethyl)-1-nitrosourea] | 200 mg/kg | 5.21 mg/kg | 3/6 | > 350% | 38.4 | 600 mg/kg
7 | C=C(C)CN(C(=O)N(CCCl)N=O)[C@@H]1[C@H](O)[C@@H](O)[C@@H](OCC(COC)OC)O[C@@H]1CO (stereo partly drawn) [Compound 130, 3-(2-methyl-2-propenyl)-3-(2,3-dimethoxy-n-propyl α-D-galactopyranose-4-yl)-1-(2-chloroethyl)-1-nitrosourea] | 160 mg/kg | 5.06 mg/kg | 3/6 | > 340% | 31.6 | 525 mg/kg
8 | CCOCCO[C@H]1O[C@H](CO)[C@H](N(CC(C)C)C(=O)N(CCCl)N=O)[C@H](O)[C@H]1O [Compound 131, 3-isobutyl-3-(2-ethoxyethyl α-D-galacropyranose-4-yl)-1-(2-chloroethyl)-1-nitrosourea] | 160 mg/kg | 3.98 mg/kg | 4/6 | > 430% | 40.2 | 565 mg/kg
9 | CCCN(C[C@@H]1O[C@@H](OCC(C)C)[C@@H](O)[C@H](O)[C@@H]1O)C(=O)N(CCCl)N=O [Compound 133, 3-n-propyl-3-(isobutyl α-L-galactopyranose-6-yl)-1-(2-chloroethyl)-1-nitrosourea] | 150 mg/kg | 4.11 mg/kg | 3/6 | > 360% | 36.5 | 495 mg/kg
10 | CCCCN(C[C@@H]1O[C@@H](OCC2CC2)[C@@H](O)[C@H](O)[C@@H]1O)C(=O)N(CCCl)N=O [Compound 134, 3-n-butyl-3-(cyclopropylmethyl α-L-galactopyranose-6-yl)-1-(2-chloroethyl)-1-nitrosourea] | 150 mg/kg | 3.73 mg/kg | 3/6 | > 365% | 40.2 | 490 mg/kg
11 | CC(C)CO[C@H]1O[C@H](CO)[C@@H](N(C(=O)N(CCCl)N=O)C2CCCCC2)[C@H](O)[C@@H]1O [Compound 137, 3-cyclohexyl-3-(isobutyl α-D-mannopyranose-4-yl)-1-(2-chloroethyl)-1-nitrosourea] | 170 mg/kg | 3.74 mg/kg | 4/6 | > 425% | 45.5 | 550 mg/kg
12 | CCC(C)N(C(=O)N(CCCl)N=O)[C@H]1[C@H](O)[C@H](O)[C@@H](OCc2ccccc2)O[C@@H]1CO (stereo partly drawn) [Compound 138, 3-sec-butyl-3-(benzylα-D-mannopyranose-4-yl)-1-(2-chloroethyl)-1-nitrosourea] | 120 mg/kg | 4.26 mg/kg | 3/6 | > 350% | 28.2 | 370 mg/kg
13 | CC(C)CN(C[C@H]1O[C@H](OCc2ccccc2)[C@@H](O)[C@H](O)[C@@H]1O)C(=O)N(CCCl)N=O [Compound 139, 3-isobutyl-3-(benzyl α-D-altropyranose-6-yl)-1-(2-chloroethyl)-1-nitrosourea] | 130 mg/kg | 4.58 mg/kg | 3/6 | > 340% | 28.4 | 420 mg/kg
14 | COCC(C)N(C[C@H]1O[C@H](OCCc2ccccc2)[C@@H](O)[C@H](O)[C@@H]1O)C(=O)N(CCCl)N=O (stereo partly drawn) [Compound 141, 3-(1-methyl-2-methoxyethyl)-3-(phenyl-β-ethyl α-D-altropyranose-6-yl)-1-(2-chloroethyl)-1-nitrosourea] | 160 mg/kg | 4.4 mg/kg | 3/6 | > 360% | 36.4 | 480 mg/kg
15 | COCCN(C(=O)N(CCCl)N=O)[C@@H]1[C@@H](OCCc2ccccc2)O[C@H](CO)[C@@H](O)[C@H]1O [Compound 142, 3-(2-methoxyethyl)-3-(phenyl-β-ethyl α-D-altropyranose-2-yl)-1-(2-chloroethyl)-1-nitrosourea] | 160 mg/kg | 4.16 mg/kg | 3/6 | > 350% | 38.5 | 500 mg/kg
16 | O=NN(CCCl)C(=O)N(CC1CCCO1)[C@H]1[C@H](O)[C@@H](OCCc2ccccc2)O[C@H](CO)[C@H]1O (stereo partly drawn) [Compound 143, 3-tetrahydrofurfuryl-3-(phenyl-β-ethyl α-D-altropyranose-3-yl)-1-(2-chloroethyl)-1-nitrosourea] | 150 mg/kg | 3.52 mg/kg | 4/6 | > 425% | 42.6 | 460 mg/kg
17 | COCC(C)O[C@H]1O[C@H](CN(CC(C)C)C(=O)N(CCCl)N=O)[C@@H](O)[C@@H](O)[C@@H]1O (stereo partly drawn) [Compound 144, 3-isobutyl-3-(1-methyl-2-methoxyethyl α-D-altropyranose-6-yl)-1-(2-chloroethyl)-1-nitrosourea] | 160 mg/kg | 2.8 mg/kg | 6/6 | > 700% | 57.1 | 580 mg/kg
18 | CCCN(C(=O)N(CCCl)N=O)[C@@H]1[C@@H](O)[C@@H](OC2CCCCC2)OC[C@H]1O [Compound 147, 3-n-propyl-3-(cyclohexyl α-D-xylopyranose-3-yl)-1-(2-chloroethyl)-1-nitrosourea] | 150 mg/kg | 3.91 mg/kg | 3/6 | > 350% | 38.4 | 430 mg/kg
19 | CC(C)N(C(=O)N(CCCl)N=O)[C@@H]1CO[C@H](OC2CCCCC2)[C@H](O)[C@H]1O [Compound 148, 3-isopropyl-3-(cyclohexyl α-D-xylopyranose-4-yl)-1-(2-chloroethyl)-1-nitrosourea] | 160 mg/kg | 3.81 mg/kg | 4/6 | > 425% | 42.0 | 480 mg/kg
20 | CC(C)CN(C(=O)N(CCCl)N=O)[C@@H]1[C@@H](O)[C@@H](OC2CCCCC2)OC[C@H]1O [Compound 150, 3-isobutyl-3-(cyclohexyl α-D-xylopyranose-3-yl)-1-(2-chloroethyl)-1-nitrosourea] | 150 mg/kg | 3.12 mg/kg | 4/6 | > 420% | 48.1 | 505 mg/kg
21 | CC(C)CN(C(=O)N(CCCl)N=O)[C@@H]1CO[C@H](OC2CCCCC2)[C@H](O)[C@H]1O [Compound 151, 3-isobutyl-3-(cyclohexyl α-D-xylopyranose-4-yl)-1-(2-chloroethyl)-1-nitrosourea] | 150 mg/kg | 3.21 mg/kg | 4/6 | > 425% | 46.7 | 490 mg/kg
